From EP0684822B1, “CARBOCYCLIC DEOXYGUANOSINE ANALOGS FOR THE TREATMENT OF VIRAL INFECTIONS” (SOUTHERN RESEARCH INSTITUTE, priority 1993, dated 1994)
≈ marks a conversion by molar mass, not a printed value. Where “and” joins values, the source holds several entries; their conditions need not be identical. Equal entries are not always repeated.

Tests used:
[1] = tested on: HSV-1 (strain 377, TK+); assay: Antiviral activity against HSV-1; type: cell-based; settings: for VR / EC50: HSV-1, range of tests; for EC50: Human alphaherpesvirus 1, read-out: Mic50
Procedure: (§1) D-2'-CdG and L-2'-CdG were tested, alongside D,L-2'-CdG, against both HSV-1 (strain 377, TK+; obtained from Dr. Earl Kern, University of Alabama) and HSV-2 (strain MS, TK+; also obtained from Dr. Earl Kern). In these tests (Table 5), Ara-A and acyclovir (ACV) were the positive control drugs. In four tests vs. HSV-1, the antiviral activity (VR) and potency (MIC50) of D-2'-CdG were approximately the same as those of racemic 2-CdG. L-2'-CdG was only modestly active.

[2] = tested on: HSV-2 (strain MS, TK+); assay: Antiviral activity against HSV-2; type: cell-based; settings: HSV-2; for EC50: Human alphaherpesvirus 2, read-out: Mic50
Procedure: as §1
These compounds were tested against HSV-2(TK^+). The VR of ACV was somewhat higher than the VR values of D-2'-CdG and D,L-2'-CdG, but the values of MIC50 of the two forms of 2'-CdG were lower. In addition, experiments comparing the antiviral activity D-2'-CdG with acyclovir against HSV-1 in human foreskin fibroblasts have shown an even greater potency, in favor of D-2'-CdG.

[3] = biological target: T1, HSV-1 TK (Human herpesvirus 1, UniProt P0DTH5); assay: Competitive inhibition of [3H]-thymidine phosphorylation by partially purified HSV-1 TK; type: biochemical
T1 construct: HSV thymidine kinase (HSV TK) was isolated from HELA (BU25) cells infected with the SW148 strain of HSV-1; made in house; host or cells: HeLa (BU25) thymidine-kinase-deficient cells infected with HSV-1 strain S148/SW148
T1 sequence (P0DTH5 whole entry): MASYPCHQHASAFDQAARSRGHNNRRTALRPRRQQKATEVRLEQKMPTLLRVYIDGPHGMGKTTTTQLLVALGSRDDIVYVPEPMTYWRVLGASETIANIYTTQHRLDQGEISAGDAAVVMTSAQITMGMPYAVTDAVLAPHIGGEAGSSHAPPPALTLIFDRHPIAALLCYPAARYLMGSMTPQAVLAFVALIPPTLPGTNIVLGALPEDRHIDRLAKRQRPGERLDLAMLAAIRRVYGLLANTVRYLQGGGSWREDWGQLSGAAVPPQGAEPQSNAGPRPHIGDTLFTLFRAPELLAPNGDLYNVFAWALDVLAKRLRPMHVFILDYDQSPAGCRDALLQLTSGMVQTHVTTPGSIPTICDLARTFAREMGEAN
Procedure: The Ki's were determined from a plot of the slope of each line versus the concentration of the competitor (D-, L, or D,L-2'CdG) and are summarized below: TABLE 2

[4] = tested on: CMV; assay: CMV yield reduction in MRC5 cell monolayer cultures (plaque assay); type: cell-based, human CMV; settings: for CMV Yield: virus control 5.5
Procedure: (§2) The D- and L-enantiomers of 2'-CdG were prepared from racemic C-2,6-DAPR by an enzymatic method as described above Secrist et al. (J. Med. Chem. 30:746, 1987). The effectiveness of racemic-2'-CdG and of D-2'-CdG in reducing CMV yields in MRC5 cell monolayer cultures was determined by a plaque assay with the results set forth in tables 6 and 7.

[5] = tested on: MRC5 cell monolayer cultures; assay: Drug cytotoxicity (gross morphology) in MRC5 cell monolayer cultures; type: cell-based
Procedure: as §2

[6] = tested on: HBV; assay: HBV DNA production and replication in 2.2.15 cell cultures; type: cell-based, Hepatitis B virus (HBV); settings: for HBV DNA IN CULTURE MEDIUM DAY 0: day 0 of treatment
Procedure: 2'-CdG was tested at three concentrations (50 ng/ml, 500 ng/ml, and 5 ug/ml) against the HBV-producing, human liver cell line, 2.2.15 (Sells et al., J. Virol. 62:2836, 1989). A racemic (D,L) preparation, as well as the purified D and L isomers were tested. For these analyses compounds were tested in duplicate at all concentrations. Ara-AMP and ddG (2'3'-dideoxyguanosine) were used as HBV inhibitory control compounds. […] The nucleoside analog, ddG was used as an additional control compound since ddG has activity against duck hepatitis B virus in chronically infected Peking ducks (Lee et al., Antimicrob. Agents Chemother. 33:336, 1989) and 2'-CdG is also a deoxyguanosine analog.
2.2.15 cells were seeded in 6 well culture plates and grown to confluence over a 10 day period in medium with 5% FBS. Test compounds were then added daily for a continuous 10 day period in medium with 1% dialyzed FBS. […] Compounds were tested, in duplicate cultures, at 3 concentrations covering a 100-fold range. Culture medium (changed daily during the treatment period) was collected and stored for analysis of extracellular (virion) HBV DNA from days 0, 3, 6, and 10 of the treatment period. This allowed for an analysis of the level of HBV virion production during discrete 24 hour intervals and reduced the potential for the buildup of toxic metabolites derived from the test compounds. Treated cells were lysed following the 10th day of treatment for the analysis of intracellular HBV genomic forms. HBV DNA was analyzed in a quantitative manner for (i) overall levels (both extracellular and intracellular DNA) and (ii) the relative rate of HBV replication (intracellular DNA only).
HBV DNA levels were measured by comparison to known amounts of HBV DNA standards applied to every nitrocellulose filter (gel or slot blot) using an AMBIS Beta Scanner. Standard curves, generated by multiple analyses, were used to correlate CPM measurements with relative levels of target HBV DNA. The levels of HBV DNA in each of three classes of intracellular viral genomic forms were individually quantitated: integrated HBV DNA, episomal monomeric genomes and HBV DNA replication intermediates (RI). Integrated HBV DNA was used to normalize the relative amounts of DNA in each lane because the levels of this class of HBV DNA would be expected to remain constant on a per cell basis. The levels of the monomeric HBV genomes and RI were used as an indicator of the relative level of HBV replication.

[7] = tested on: MRC5 cell monolayer cultures; assay: Drug cytotoxicity (gross morphology) in MRC5 cell monolayer cultures; type: cell-based; remark: listed apart in the source
[8] = tested on: human CMV; assay: In vitro activity against human CMV in human foreskin fibroblast cells; type: cell-based; settings: Human betaherpesvirus 5, read-out: ED50 value (median dose at which 50% antiviral efficacy is observed)
Procedure: The in vitro activity of D-2'-CdG was also compared with the current investigational drug of choice for human CMV, DHPG. These experiments were carried out in human foreskin fibroblast cells.

[9] = 50ng/ml, 24 hours following 10th day of treatment
[10] = 500ng/ml, 24 hours following 10th day of treatment
[11] = 5 ug/ml, 24 hours following 10th day of treatment

Q: Which results are given for `Nc1nc2c(ncn2COCCO)c(=O)[nH]1` [Acyclovir, acyloguanosine, reference compound]?
A: VR [1]: 5.7-6.5; EC50 [1]: 1.5 to 2.9 µg/mL (≈ 6.66 to 12.9 µM); VR [2]: 4.5; EC50 [2]: 5.3 µg/mL (≈ 23.5 µM)

Q: Which results are given for `Nc1nc2c(ncn2[C@@H]2C[C@H](CO)[C@@H](O)C2)c(=O)[nH]1` (racemic) [D,L-2'-CdG, (±)-2-amino-1,9-dihydro-[(1α,3β,4α)-3-hydroxy-4(hydroxymethyl)cyclopentyl]-6H-purin-6-one]?
A: Ki [3]: 3 µM; VR [1]: 5.3-7.0; EC50 [1]: 0.2 to 0.3 µg/mL (≈ 0.754 to 1.13 µM); potency relative to ACV ([1]; more potent than ACV): 5-10 times; VR [2]: 3.7; EC50 [2]: 2.6 µg/mL (≈ 9.8 µM); CMV Yield ([4]; 0.032 µg/mL): 5.4 log10CCID50/mL; CMV Yield ([4]; 0.1 µg/mL): 5.0 log10CCID50/mL; CMV Yield ([4]; 0.32 µg/mL): 4.5 log10CCID50/mL; CMV Yield ([4]; 1.0 µg/mL): 3.6 log10CCID50/mL; CMV Yield ([4]; 3.2 µg/mL): 1.0 log10CCID50/mL; CMV Yield ([4]; 10 µg/mL): 0 log10CCID50/mL; inhibition at 0.032 µg/mL ([4]; Human betaherpesvirus 5, MRC5, 0.032 µg/mL, read-out: Reduction (%) of CPE by CdG at Time of Harvest): 0%; inhibition at 0.1 µg/mL ([4]; Human betaherpesvirus 5, MRC5, 0.1 µg/mL, read-out: Reduction (%) of CPE by CdG at Time of Harvest): 0%; inhibition at 0.32 µg/mL ([4]; Human betaherpesvirus 5, MRC5, 0.32 µg/mL, read-out: Reduction (%) of CPE by CdG at Time of Harvest): 20%; inhibition at 1 µg/mL ([4]; Human betaherpesvirus 5, MRC5, 1.0 µg/mL, read-out: Reduction (%) of CPE by CdG at Time of Harvest): 95%; inhibition at 3.2 µg/mL ([4]; Human betaherpesvirus 5, MRC5, 3.2 µg/mL, read-out: Reduction (%) of CPE by CdG at Time of Harvest): 100%; inhibition at 10 µg/mL ([4]; Human betaherpesvirus 5, MRC5, 10 µg/mL, read-out: Reduction (%) of CPE by CdG at Time of Harvest): 100%; EC50 ([4]; Human betaherpesvirus 5, MRC5 cells, read-out: MIC50): 0.069 µg/mL (≈ 0.26 µM); Drug Cytotoxicity (Gross Morphology) ([5]; 0.032 µg/mL): 0; Drug Cytotoxicity (Gross Morphology) ([5]; 0.1 µg/mL): 0; Drug Cytotoxicity (Gross Morphology) ([5]; 1.0 µg/mL): 0; Drug Cytotoxicity (Gross Morphology) ([5]; 32 µg/mL): toxic; INTRACELLULAR HBV DNA INTEG. [6, 9]: 1.3 PG/UG CELL DNA and 1.2 PG/UG CELL DNA; INTRACELLULAR HBV DNA MONO. [6, 9]: 2.1 PG/UG CELL DNA and 1.4 PG/UG CELL DNA; INTRACELLULAR HBV DNA RI [6, 9]: 12 PG/UG CELL DNA and 18 PG/UG CELL DNA; HBV DNA IN CULTURE MEDIUM DAY 0 ([6]; 50ng/ml): 120 pg/mL and 95 pg/mL; HBV DNA IN CULTURE MEDIUM DAY 3 ([6]; 50ng/ml): 88 pg/mL and 75 pg/mL; HBV DNA IN CULTURE MEDIUM DAY 6 ([6]; 50ng/ml): 55 pg/mL and 77 pg/mL; HBV DNA IN CULTURE MEDIUM DAY 10 ([6]; 50ng/ml): 11 pg/mL and 6 pg/mL; INTRACELLULAR HBV DNA INTEG. [6, 10]: 1.4 PG/UG CELL DNA and 1.5 PG/UG CELL DNA; INTRACELLULAR HBV DNA MONO. [6, 10]: 1.8 PG/UG CELL DNA and 2.0 PG/UG CELL DNA; HBV DNA IN CULTURE MEDIUM DAY 0 ([6]; 500ng/ml): 89 pg/mL and 90 pg/mL; HBV DNA IN CULTURE MEDIUM DAY 3 ([6]; 500ng/ml): 41 pg/mL and 55 pg/mL; HBV DNA IN CULTURE MEDIUM DAY 10 ([6]; 500ng/ml): 0.1 pg/mL and 0.2 pg/mL; INTRACELLULAR HBV DNA INTEG. [6, 11]: 1.0 PG/UG CELL DNA and 1.6 PG/UG CELL DNA; INTRACELLULAR HBV DNA MONO. [6, 11]: 1.9 PG/UG CELL DNA and 1.7 PG/UG CELL DNA; HBV DNA IN CULTURE MEDIUM DAY 0 ([6]; 5 ug/ml): 87 pg/mL and 88 pg/mL; HBV DNA IN CULTURE MEDIUM DAY 3 ([6]; 5 ug/ml): 16 pg/mL and 24 pg/mL; HBV DNA IN CULTURE MEDIUM DAY 6 ([6]; 5 ug/ml): 0.3 pg/mL and 0.4 pg/mL; HBV DNA IN CULTURE MEDIUM DAY 10 ([6]; 5 ug/ml): 0 pg/mL; MIC ([6]; Hepatitis B virus, 240 h, HBV replication in 2.2.15 cells, read-out: minimal inhibitory concentration): ~0.05 µg/mL (≈ 0.188 µM); Drug Cytotoxicity (Gross Morphology) ([7]; 0.32 µg/mL): 0; Drug Cytotoxicity (Gross Morphology) ([7]; 3.2 µg/mL): v. sl. toxicity; Drug Cytotoxicity (Gross Morphology) ([7]; 10 µg/mL): sl. toxicity

Q: For `Nc1nc(O)c2ncn(COC(CO)CO)c2n1` [DHPG, dihydroxy propoxymethyl guanine, reference compound], which EC50 [8] is on record?
A: 0.2 µg/mL (≈ 0.784 µM)
